Results as given in PubChem BioAssay (NCI).
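Exposure lasted 48 hours, with cells grown in 96-well plates and compounds tested at five concentrations. GI50 = concentration required for 50% inhibition of growth. At the TGI there is no net growth.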

Key:
Assay in all cases: inhibition of tumour cell growth, NCI panel, 48 h
LOX IMVI melanoma = test system: LOX IMVI melanoma
SR leukemia = test system: SR leukemia
OVCAR-4 ovarian = test system: OVCAR-4 ovarian
RXF 393 renal = test system: RXF 393 renal
K-562 leukemia = test system: K-562 leukemia
DU-145 prostate = test system: DU-145 prostate
HCT-15 colon = test system: HCT-15 colon
A549 NSCLC = test system: A549 NSCLC
SNB-19 CNS = test system: SNB-19 CNS
MDA-MB-435 = test system: MDA-MB-435
T-47D breast = test system: T-47D breast
OVCAR-5 ovarian = test system: OVCAR-5 ovarian
SN12C renal = test system: SN12C renal
786-0 renal = test system: 786-0 renal
NCI-H460 lung = test system: NCI-H460 lung
CAKI-1 renal = test system: CAKI-1 renal
EKVX NSCLC = test system: EKVX NSCLC
NCI-H23 lung = test system: NCI-H23 lung
RPMI-8226 leukemia = test system: RPMI-8226 leukemia
SW-620 colon = test system: SW-620 colon
SK-MEL-5 melanoma = test system: SK-MEL-5 melanoma
A498 renal = test system: A498 renal
COLO 205 colon = test system: COLO 205 colon
MALME-3M melanoma = test system: MALME-3M melanoma
HCT-116 colon = test system: HCT-116 colon
TK-10 renal = test system: TK-10 renal
NCI-H226 lung = test system: NCI-H226 lung
OVCAR-8 ovarian = test system: OVCAR-8 ovarian
SF-268 CNS = test system: SF-268 CNS
HCC-2998 colon = test system: HCC-2998 colon
SNB-75 CNS = test system: SNB-75 CNS
HT29 colon = test system: HT29 colon
UACC-257 melanoma = test system: UACC-257 melanoma
KM12 colon = test system: KM12 colon
HL-60(TB) leukemia = test system: HL-60(TB) leukemia
CCRF-CEM leukemia = test system: CCRF-CEM leukemia
IGROV1 ovarian = test system: IGROV1 ovarian
HS 578T breast = test system: HS 578T breast
SK-OV-3 ovarian = test system: SK-OV-3 ovarian
UO-31 renal = test system: UO-31 renal
SF-295 CNS = test system: SF-295 CNS
NCI-H522 lung = test system: NCI-H522 lung
SK-MEL-2 melanoma = test system: SK-MEL-2 melanoma
NCI/ADR-RES ovarian = test system: NCI/ADR-RES ovarian
HOP-62 NSCLC = test system: HOP-62 NSCLC
HOP-92 NSCLC = test system: HOP-92 NSCLC
MOLT-4 leukemia = test system: MOLT-4 leukemia
PC-3 prostate = test system: PC-3 prostate
M14 melanoma = test system: M14 melanoma
UACC-62 melanoma = test system: UACC-62 melanoma
U251 CNS = test system: U251 CNS
SF-539 CNS = test system: SF-539 CNS
ACHN renal = test system: ACHN renal
SK-MEL-28 melanoma = test system: SK-MEL-28 melanoma
MCF7 breast = test system: MCF7 breast
MDA-MB-231 breast = test system: MDA-MB-231 breast

Work on `C=CCn1c(SCC(=O)Nc2ccc(C(=O)/C=C/c3cc(OC)c(OC)c(OC)c3)cc2)nnc1-c1c[nH]c2ccccc12` yielded a GI50 (LOX IMVI melanoma) of 0.904 µM, a TGI (LOX IMVI melanoma) of 2.34 µM and a GI50 (SR leukemia) of 0.522 µM. The TGI (SR leukemia) was greater than 100 µM, the GI50 (OVCAR-4 ovarian) was 2.79 µM and the TGI (OVCAR-4 ovarian) was 8.91 µM. The GI50 (RXF 393 renal) was 1.53 µM, the TGI (RXF 393 renal) was 3.34 µM and the GI50 (K-562 leukemia) was 0.991 µM. It also gave a TGI (K-562 leukemia) greater than 100 µM, a GI50 (DU-145 prostate) of 3.19 µM and a TGI (DU-145 prostate) of 10.8 µM. The GI50 (HCT-15 colon) was 2.08 µM, the TGI (HCT-15 colon) was 11.1 µM and the GI50 (A549 NSCLC) was 3.04 µM. It also gave a TGI (A549 NSCLC) of 12.3 µM, a GI50 (SNB-19 CNS) of 3 µM and a TGI (SNB-19 CNS) of 13.3 µM. It also gave a GI50 (MDA-MB-435) of 1.82 µM, a TGI (MDA-MB-435) of 4.76 µM and a GI50 (T-47D breast) of 2.42 µM. For the same molecule, the TGI (T-47D breast) was greater than 100 µM, the GI50 (OVCAR-5 ovarian) was 2.06 µM and the TGI (OVCAR-5 ovarian) was 4.34 µM. It also gave a GI50 (SN12C renal) of 3.71 µM, a TGI (SN12C renal) greater than 100 µM and a GI50 (786-0 renal) of 1.84 µM. It also gave a TGI (786-0 renal) of 3.43 µM, a GI50 (NCI-H460 lung) of 3.1 µM and a TGI (NCI-H460 lung) of 10.1 µM. For the same molecule, the GI50 (CAKI-1 renal) was 3.35 µM, the TGI (CAKI-1 renal) was greater than 100 µM and the GI50 (EKVX NSCLC) was 3.69 µM. For the same molecule, the TGI (EKVX NSCLC) was greater than 100 µM, the GI50 (NCI-H23 lung) was 1.85 µM and the TGI (NCI-H23 lung) was 4.16 µM. For the same molecule, the GI50 (RPMI-8226 leukemia) was 0.288 µM, the TGI (RPMI-8226 leukemia) was 1.26 µM and the GI50 (SW-620 colon) was 2.08 µM. It also gave a TGI (SW-620 colon) of 5.85 µM, a GI50 (SK-MEL-5 melanoma) of 3.52 µM and a TGI (SK-MEL-5 melanoma) of 13.5 µM. For the same molecule, the GI50 (A498 renal) was 1.5 µM, the TGI (A498 renal) was 2.92 µM and the GI50 (COLO 205 colon) was 1.87 µM. The TGI (COLO 205 colon) was 4.07 µM, the GI50 (MALME-3M melanoma) was 3.2 µM and the TGI (MALME-3M melanoma) was 24.9 µM. The GI50 (HCT-116 colon) was 0.376 µM, the TGI (HCT-116 colon) was 1.53 µM and the GI50 (TK-10 renal) was 5.8 µM. It also gave a TGI (TK-10 renal) of 34.3 µM, a GI50 (NCI-H226 lung) of 2.56 µM and a TGI (NCI-H226 lung) of 56.8 µM. The GI50 (OVCAR-8 ovarian) was 3.44 µM, the TGI (OVCAR-8 ovarian) was greater than 100 µM and the GI50 (SF-268 CNS) was 3.43 µM. For the same molecule, the TGI (SF-268 CNS) was 18.6 µM, the GI50 (HCC-2998 colon) was 1.65 µM and the TGI (HCC-2998 colon) was 3.09 µM. For the same molecule, the GI50 (SNB-75 CNS) was 3.5 µM, the TGI (SNB-75 CNS) was 17.3 µM and the GI50 (HT29 colon) was 1.7 µM. For the same molecule, the TGI (HT29 colon) was 3.3 µM, the GI50 (UACC-257 melanoma) was 3.5 µM and the TGI (UACC-257 melanoma) was 19.8 µM. It also gave a GI50 (KM12 colon) of 1.48 µM, a TGI (KM12 colon) of 2.98 µM and a GI50 (HL-60(TB) leukemia) of 2.18 µM. For the same molecule, the TGI (HL-60(TB) leukemia) was 8.04 µM, the GI50 (CCRF-CEM leukemia) was 2.24 µM and the TGI (CCRF-CEM leukemia) was greater than 100 µM. For the same molecule, the GI50 (IGROV1 ovarian) was 1.6 µM, the TGI (IGROV1 ovarian) was 4.06 µM and the GI50 (HS 578T breast) was 4.35 µM. It also gave a TGI (HS 578T breast) greater than 100 µM, a GI50 (SK-OV-3 ovarian) of 4.46 µM and a TGI (SK-OV-3 ovarian) of 19.3 µM. For the same molecule, the GI50 (UO-31 renal) was 1.63 µM, the TGI (UO-31 renal) was 4.77 µM and the GI50 (SF-295 CNS) was 3.14 µM. For the same molecule, the TGI (SF-295 CNS) was 11.6 µM, the GI50 (NCI-H522 lung) was 2.15 µM and the TGI (NCI-H522 lung) was 4.99 µM. It also gave a GI50 (SK-MEL-2 melanoma) of 2.25 µM, a TGI (SK-MEL-2 melanoma) of 6.38 µM and a GI50 (NCI/ADR-RES ovarian) greater than 100 µM. It also gave a TGI (NCI/ADR-RES ovarian) greater than 100 µM, a GI50 (HOP-62 NSCLC) of 2.06 µM and a TGI (HOP-62 NSCLC) of 5.22 µM. For the same molecule, the GI50 (HOP-92 NSCLC) was 4.24 µM, the TGI (HOP-92 NSCLC) was greater than 100 µM and the GI50 (MOLT-4 leukemia) was 2.7 µM. For the same molecule, the TGI (MOLT-4 leukemia) was greater than 100 µM, the GI50 (PC-3 prostate) was 3.09 µM and the TGI (PC-3 prostate) was greater than 100 µM. It also gave a GI50 (M14 melanoma) of 2.66 µM, a TGI (M14 melanoma) of 8.39 µM and a GI50 (UACC-62 melanoma) of 2.55 µM. It also gave a TGI (UACC-62 melanoma) of 10.4 µM, a GI50 (U251 CNS) of 1.61 µM and a TGI (U251 CNS) of 3.64 µM. It also gave a GI50 (SF-539 CNS) of 1.81 µM, a TGI (SF-539 CNS) of 3.64 µM and a GI50 (ACHN renal) of 1.97 µM. The TGI (ACHN renal) was 4.33 µM, the GI50 (SK-MEL-28 melanoma) was 2.32 µM and the TGI (SK-MEL-28 melanoma) was 5.61 µM. It also gave a GI50 (MCF7 breast) of 0.361 µM, a TGI (MCF7 breast) of 1.86 µM and a GI50 (MDA-MB-231 breast) of 5.58 µM. For the same molecule, the TGI (MDA-MB-231 breast) was greater than 100 µM.
